Results on 2 molecules are retold here after patent US20210015793A1, “COMPOUNDS FOR TREATING CNS- AND NEURODEGENERATIVE DISEASES” (ETH ZURICH, priority 2018, published 2021).

Molecules are shown by their SMILES.

The subject of one assay is Tg2576 AD mice. The assay can be described thus: SDS-insoluble hippocampal Abeta1-40 and Abeta1-42 by sandwich ELISA in Tg2576 mice. It counts as in vivo, mouse. The conditions noted are these: 18 months-old Tg2576 mice, 6 months of treatment, 8 mg/kg/d in drinking water. The protocol:
(§1) For quantitative analysis of SDS-insoluble hippocampal contents of Abeta1-40 and Abeta1-42, hippocampi were dissected out from brains isolated on ice from 18-month-old Tg2576 mice without and with treatment for 6 months with Compound-1 and Compound-4. Isolated hippocampi were pulverized under liquid nitrogen, and SDS-insoluble Abeta peptides were extracted by serial extraction in 14 microL/mg wet weight of Tris buffer (50 mM Tris, 200 nM NaCl, 2 mM EDTA, pH 7.2, supplemented with 1× protease inhibitors/1× phosphatase inhibitors), followed by extraction with Triton X-100-containing buffer (Tris extraction buffer with 0.1% Triton X-100), and followed by extraction with 2% SDS. The remaining pellet was extracted with formic acid (70% formic acid in Tris buffer supplemented with 1× protease inhibitors/1× phosphatase inhibitors). The resulting formic-acid extract was neutralized with 1 M Tris buffer, pH 11, and used for quantitative determination of Abeta1-40 and Abeta1-42 by sandwich ELISA relative to a standard curve according to the protocol of the manufacturer (KHB3481 and KHB3441, Thermo Fisher Scientific, Waltham, Mass., USA).
as §1, with “mM” for “nM”, “and with” for “relative to”

The subject of a further assay is Mpp1. The assay can be described thus: Immunoblot of Mpp1 protein content in PBMN cells of aged B6 mice. It counts as in vivo, mouse. The conditions noted are these: 18-month-old B6 mice treated for 15 months in drinking water. From the text:
For protein separation by SDS-PAGE (Laemmli system), the protein pellet can be dissolved in SDS-PAGE sample buffer supplemented with SDS. As an alternative, sample buffer for native gel electrophoresis can be added. According to the original protocol, the SDS-PAGE Laemmli sample buffer contains 2% SDS, 0.1 M DTT (or 5% mercaptoethanol). To improve disaggregation of aggregated proteins, the buffer can be supplemented without or with urea ranging from about 0 M-8 M, preferably about 6 M urea and incubated for about 10 min to 24 h, preferably about 90 min at room temperature. Proteins can be stored frozen (about […]) at a concentration ranging from about 0.01-100 mg/ml, preferably about 0.5 mg-1 mg/ml, for further use. It may be further desirable to dilute the solubilisate, for example, diluting the supernatant solubilisate by 1:1-1:20, preferably 1:5, in a suitable buffer as described above (preferably supplemented with protease inhibitors). Before immunoblot detection of proteins, proteins are separated. For separation of proteins, one- or two-dimensional SDS-PAGE can be applied. […]

Take `O=C(C1=C(O)C(c2ccccc2)N(c2ccc3c(c2)OCO3)C1=O)C1CC1` (stereo not drawn) [Compound-1, 1-(1,3-benzodioxol-5-yl)-4-(cyclopropane-carbonyl)-3-hydroxy-2-phenyl-2H-pyrrol-5-one]: in the assay with Tg2576 AD mice, the “hippocampal content of Abeta1-40” value is on record as “significantly decreased” and the “hippocampal content of Abeta1-42” value is “significantly decreased”. Moreover, in the assay with Mpp1, the “Mpp1 protein content in PBMN cells” value is reported as “significantly decreased the content of the senescence marker, Mpp1”.

For `O=C(C1=C(O)C(c2ccc(F)cc2)N(c2ccc3c(c2)OCO3)C1=O)C1CC1` (stereo not drawn) [Compound-1F, 1-(1,3-Benzodioxol-5-yl)-4-(cyclopropanecarbonyl)-2-(4-fluorophenyl)-3-hydroxy-2H-pyrrol-5-one], in the assay with Tg2576 AD mice, the “hippocampal content of Abeta1-40” value was “significantly decreased” and the “hippocampal content of Abeta1-42” value is “significantly decreased”. For the same molecule, the “Mpp1 protein content in PBMN cells” value in the assay on Mpp1 is listed as “significantly decreased the content of the senescence marker, Mpp1”.
